The values below come from patent US20110158907A1, “DIPHENYL-HETEROARYL DERIVATIVES AND THEIR USE FOR BINDING AND IMAGING AMYLOID PLAQUES” (The Trustees of the Univeristy of Pennsylvania, priority 2007, published 2011).

Data set [1] addresses T1, Amyloid Plaque (Homo sapiens, UniProt P05067). Conditions: AD brain homogenates; read-out: Binding Affinity (Ki vs. ^125I-IMPY), published values; cited from earlier work.
A further data set has as its target fibrillar Aβ aggregates (Homo sapiens, UniProt P05067). The note with it: read-out: inhibition constants (Ki) for binding to fibrillar Aβ aggregates; cited from earlier work.
For data set [2] the following is noted: mouse; for brain washout index (brain2 min/brain30 min) / remaining in the brain: in vivo; for remaining in the brain: 2 h.
Procedure: (§2) While under isoflurane anesthesia, 0.15 mL of a 0.1% bovine serum albumin solution containing [^125I] or [^18F]tracers (5-10 μCi) was injected directly into the tail vein of ICR mice (22-25 g, male). The mice (n=3 for each time point) were sacrificed by cervical dislocation at designated time-points post injection. The organs of interest were removed and weighed, and the radioactivity was counted with an automatic gamma counter. The percentage dose per organ was calculated by a comparison of the tissue counts to suitably diluted aliquots of the injected material. The total activity of the blood was calculated under the assumption that it is 7% of the total body weight. The % dose/g of samples was calculated by comparing the sample counts with the count of the diluted initial dose.
Data set [3] is described as follows: Partition coefficient (1-octanol/buffer). The class given is physicochemical. The note with it: 1-octanol / 0.1 M phosphate buffer pH 7.4. How it is done:
Partition coefficients were measured by mixing the [^125I] or [^18F]tracer with 3 g each of 1-octanol and buffer (0.1 M phosphate, pH 7.4) in a test tube. The test tube was vortexed for 3 min at room temperature, followed by centrifugation for 5 min. Two weighed samples (0.5 g each) from the 1-octanol and buffer layers were counted in a well counter. The partition coefficient was determined by calculating the ratio of cpm/g of 1-octanol to that of buffer. Samples from the 1-octanol layer were re-partitioned until consistent partitions of coefficient values were obtained. The measurement was done in triplicate and repeated three times.
Partition coefficients were measured by mixing ^123I-33 with 3 g each of 1-octanol and buffer (0.1 M phosphate, pH 7.4) in a test tube. The test tube was vortexed for 3 min at room temperature, followed by centrifugation for 5 min. Two weighed samples (0.5 g each) from the 1-octanol and the buffer layer were counted in a well counter. The partition coefficient was determined by calculating the ratio of cpm/g of 1-octanol to that of the buffer. Samples from the 1-octanol layer were repartitioned until consistent partitions of,coefficient values were obtained from the third partition. The measurement was done in triplicate and repeated three times.

Data set [4] deals with Aβ plaques in AD brain sections. Nature of the data set: In vitro film autoradiography of macroarray brain sections. The class given is binding, human.
Text: FIG. 5 depicts in vitro film autoradiography of macroarray brain sections constructed from AD and control cases. The Aβ plaques were clearly visualized with low background labeling with two preferred radiofluorinated probes of the present invention.
(§1) To compare different probes using similar sections of human brain tissue, human macro-array brain sections from 6 confirmed AD cases and one control subject were assembled. The presence and localization of plaques on the sections was confirmed with immunohistochemical staining with monoclonal Aβ antibody 4G8 (Sigma). The frozen sections were incubated with [^125I] and [^18F]tracers (200,000-250,000 cpm/200 μL) for 1 h at room temperature. The sections were then dipped in saturated lithium carbonate in 40% EtOH (two two-minute washes) and washed with 40% EtOH (one two-minute wash) followed by rinsing with water for 30 sec. After drying, the ^125I- or ^18F-labeled sections were exposed to Kodak Biomax MR film overnight.
[^18F]tracers: Brain sections from AD subjects were obtained by freezing the brain in powdered dry ice and cut into 20 micrometer-thick sections. The sections were incubated with [^18F]tracers (200,000-250,000 cpm/200 μl) for 1 hr at room temperature. The sections were then dipped in saturated Li2CO3 in 40% EtOH (two two-minute washes) and washed with 40% EtOH (one two-minute wash) followed by rinsing with water for 30 sec. After drying, the ^18F-labeled sections were exposed to Kodak MR film overnight. The results are depicted in the film in FIG. 2.
as §1, with “[^125I]tracers: To” for “To”, “The” for “The frozen”, “[^125I]tracers” for “[^125I] and [^18F]tracers”, “Li2CO3” for “lithium carbonate”, “^125I-labeled” for “^125I- or ^18F-labeled”
A macro-array block was constructed using postmortem human brain samples consisting of seven confirmed AD cases. […] In vitro film autoradiography was carried out using these novel ^125I or ^18F labeled diphenyltriazole probes. […] The labeling pattern was consistent with that observed by immunohistochemical labeling with an antibody (4G8) specific for Aβ (data not shown).

A short description of data set [5]: Organ distribution of [^125I] or [^18F]tracers in normal mice.
Procedure: as §2
Data set [6] is described as follows: Estimate of human dosimetry extrapolated from the mouse data. The note with it: proposed 5 mCi human dose. How it is done:
When administered i.v. to male mice, ^123I-33 entered the brain quickly and reached a peak brain concentration of 3.7% dose/g within 2 min post administration and fell to 0.25% dose/g within 60 min. […] At the proposed 5 mCi human dose the lower large intestine is estimated to receive approximately 3.8 rem, while the upper large intestine is estimated to receive approximately 3.3 rem of exposure.

For another data set, the system named is Aβ plaques. The data set can be described thus: Labeling of Aβ plaques in AD sections by ^123I-33 at tracer concentrations. The class given is binding, human.
Data set [7] in a line: Organ distribution of ^123I-33 in normal mice. The class given is in vivo, ICR mice. The note with it: i.v.; for % total counted / Biodistribution Pancreas / Biodistribution Pancrease / Biodistribution Brain: normal male mice. How it is done:
Total activities of blood were calculated under the assumption that they were 7% of the total body weight.

Data set [8] relates to Aβ plaques in AD brain tissue homogenates. The data set can be described thus: Specific binding of radiolabeled ligands to AD and control brain tissue homogenates. Also noted: species or system human. The note with it: for specific binding, gray matter homogenates of AD / specific binding, white matter homogenates of AD brain: 0.06 nM [^125I]probe, 0.5 nM [^18F]probe. How it is done: FIG. 6 depicts specific binding of preferred embodiments of the present invention to pooled AD and control brain tissue homogenates. Gray and white matters were dissected from the cortical regions. Higher specific binding was detected mainly in gray matter of AD. Relatively low binding was measured in white matter homogenates of AD as well as in gray and white matter homogenates of the control brain.
AD postmortem brain tissues were obtained from University of Washington Alzheimer's Disease Research Center. The neuropathological diagnosis was confirmed by current criteria (NIA-Reagan Institute Consensus Group, 1997). Homogenates were then prepared from dissected gray matters from four pooled AD patients in phosphate buffered saline (PBS, pH 7.4) at the concentration of approximately 100 mg wet tissue/ml (motor-driven glass homogenizer with setting of 6 for 30 sec). The homogenates were aliquoted into 1 mL-portions and stored at −70° C. for up to 2 years without loss of binding signal.
Similarly, the specific binding of radioiodinated and radiofluorinated ligands (0.06 nM for [^125I]probe and 0.5 nM for [^18F]probe to homogenates, prepared from the gray and white matters of AD and control brain tissues, were carried out as described above. Nonspecific binding was determined in the presence of 2 μM of the corresponding nonradioactive probes.
To further characterize the specificity of plaque binding, we evaluated [^125I]10a and [^18F]17a by a direct in vitro binding assay using homogenates (from different brain regions) prepared from AD and control brain tissues.

The target of data set [9] is T1, Amyloid Plaque. The data set can be described thus: Inhibition of ^125I-IMPY binding in AD brain homogenates. Conditions: read-out: Binding Affinity (Ki vs. ^125I-IMPY). How it is done:
Postmortem brain tissue was obtained and neuropathological diagnosis was confirmed in accordance with the NIA-Reagan Institute Consensus Group criteria. Homogenates were then prepared from dissected gray matter, pooled in phosphate buffered saline and aliquoted into 1-ml portions (100 mg wet tissue/ml), which could be stored at −70° C. for 3-6 months without loss of binding signal.
For the binding assays brain homogenates were incubated with ^125I-IMPY (0.04-0.06 nM diluted in phosphate buffered saline (PBS)) and test compound (10^−5-10^−10 M diluted in PBS containing 0.1% bovine serum albumin (BSA)). Nonspecific binding was defined in the presence of IMPY (600 nM). The bound and free radioactivity was separated by vacuum filtration followed by 2×3 ml washes of PBS. Filters containing the bound ^125I ligand were assayed in a gamma counter.

A further data set relates to CNS receptors. Nature of the data set: Selectivity against CNS receptors. The note with it: cell wraps r7-r10: No high affinity binding to any CNS receptors.

Where two headings read alike, the source gives them in different places.

As a reminder, the Ki is the dissociation constant of the complex between target and ligand, obtained from inhibition or displacement. In general, log P refers to the decadic logarithm of the partition coefficient of the neutral form, usually between octanol and water. Lower therefore signals lower lipophilicity. Usually logD stands for lipophilicity at a set pH, counting ionised and neutral species. The low end stands for a more hydrophilic compound, the high end for a more lipophilic compound. As usually defined, the logP is a log measure of how a compound divides between an organic and an aqueous phase. Low readings indicate a more hydrophilic compound, high ones a more lipophilic compound.

T1 sequence (P05067 672-711 limits assumed): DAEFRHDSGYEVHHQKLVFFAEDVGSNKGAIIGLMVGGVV
fibrillar Aβ aggregates, sequence (P05067 672-711 limits assumed): as above

For `CC(=C(C#N)C#N)c1ccc2cc(N(C)CCF)ccc2c1` [FDDNP, 2-(1-{6-[(2-fluoroethyl)(methyl)amino]-2-naphthyl}ethylidene)malononitrile], at Amyloid Plaque [1], the Ki is 239 nM.
For the molecule `O=C(O)c1cc(/N=N/c2ccc(-c3ccc(/N=N/c4ccc(O)c(C(=O)O)c4)cc3)cc2)ccc1O` [CG, chrysamine-G], the inhibitory constant (Ki) at fibrillar Aβ aggregates was 370 nM.
With `CN(C)c1ccc(-c2cn(-c3ccc(OCCC[18F])cc3)nn2)cc1` [[^18F]17b], in data set [2], the “bone uptake (in vivo defluorination)” value is 18.59 % dose/g, the “brain washout index (brain2 min/brain30 min)” value is 2.31 and the “remaining in the brain” value is reported as 1-2 % dose/g. For the same molecule, the “log P” value in [3] is reported as 2.7. In addition, in [4], the Aβ plaque labeling entry was “most distinctive Aβ plaque-labeling” and the “white matter (background) labeling” value was “minimal level of background in the white matter areas”.
On to `CN(C)c1ccc(-c2cn(-c3ccc([125I])cc3)nn2)cc1` [[^125I]10b], for which the “log P” value in data set [3] is on record as 3.4. Further, in [5], the “brain washout index (brain2 min/brain30 min)” value is reported as 3.72.
For `CN(C)c1ccc(-c2cn(-c3ccc(OCCO)c([123I])c3)nn2)cc1` [^123I-33, 2-(4-(4-(4-(dimethylamino)phenyl)-1H-1,2,3-triazol-1-yl)-2-[^123I]iodophenoxy)ethanol], in data set [6], the “estimated exposure of lower large intestine” value is “approximately 3.8 rem”, the “estimated exposure of upper large intestine” value is “approximately 3.3 rem” and the “estimated human effective dose (ED)” value is on record as “approximately 1.26 rem”. The molecule also had a pH-dependent lipophilicity (logD) in [3] of 3.25. The molecule further returned a logP in data set [3] (1-octanol/buffer (0.1 M phosphate)) of 3.25. Further, the “labeling of Aβ plaques in sections from patients with pathologically confirmed AD” value in the data set with Aβ plaques was “specifically labeled Aβ plaques”. Further, in [7] (2 min), the “% total counted” value amounted to 90.41 ± 5.38%, the “Biodistribution Pancreas” value worked out at 0.90 ± 0.12 % dose/organ and the “Biodistribution Pancrease” value is listed as 5.32 ± 0.08 % dose/g. For the same molecule, in data set [7] (60 min), the “% total counted” value is listed as 81.43 ± 5.66%, the “Biodistribution Pancreas” value is 0.25 ± 0.11 % dose/organ and the “Biodistribution Pancrease” value came out at 1.35 ± 0.52 % dose/g. In addition, in data set [7] (120 min), the “% total counted” value came to 80.05 ± 6.33%, the “Biodistribution Pancreas” value is 0.19 ± 0.09 % dose/organ and the “Biodistribution Pancrease” value turned out to be 1.09 ± 0.46 % dose/g. For the same molecule, in data set [7] (180 min), the “% total counted” value was found to be 81.95 ± 4.47%, the “Biodistribution Pancreas” value is 0.22 ± 0.03 % dose/organ and the “Biodistribution Pancrease” value is listed as 1.29 ± 0.14 % dose/g. Also, the “brain penetration and clearance” value in [7] (normal mice) was “readily penetrated and was rapidly cleared from the brain”.
Consider `CNc1ccc(-c2cn(-c3ccc([125I])cc3)nn2)cc1` [[^125I]10a], for which, in [3], the log partition coefficient (log P) is reported as 3.0. Moreover, the “white matter (background) labeling” value in data set [4] is listed as “significant white matter labeling”. Also, in data set [8], the “specific binding signal, homogenates of control brain tissues (gray and white matters)” value is on record as “low”; the “specific binding, gray matter homogenates of AD” value was “detected predominantly in the gray matter homogenates of AD”; the “specific binding, white matter homogenates of AD brain” value is reported as “very low or nonexistent”. Also, the “brain washout index (brain2 min/brain30 min)” value in data set [5] was found to be 5.66.
Consider `CN(C)c1ccc(-c2cn(-c3ccc(OCCO)c([123I])c3)nn2)cc1` [Compound 33, 2-(4-(4-(4-(dimethylamino)phenyl)-1H-1,2,3-triazol-1-yl)-2-iodophenoxy)ethanol], for which the inhibitory constant (Ki) at Amyloid Plaque [9] stood at 7.5 ± 0.5 nM. In addition, the “Biodistribution Brain” value in [7] (2 min) is recorded as 3.69 ± 0.14 % dose/g; in [7] (60 min) it was 0.25 ± 0.03 % dose/g. Also, the Selectivity result in the data set on CNS receptors is “No high”.
`CN(C)c1ccc(-c2cn(-c3ccc(OCC[18F])cc3)nn2)cc1` [[^18F]17a]: in data set [2], the “bone uptake (in vivo defluorination)” value is on record as 4.64 % dose/g, the “brain washout index (brain2 min/brain30 min)” value came out at 2.34 and the “remaining in the brain” value is on record as 1-2 % dose/g. Moreover, the log partition coefficient (log P) in [3] amounted to 2.7. Further, in [4], the Aβ plaque labeling entry is recorded as “most distinctive Aβ plaque-labeling” and the “white matter (background) labeling” value is “minimal level of background in the white matter areas”. Also, in [8], the “specific binding signal, homogenates of control brain tissues (gray and white matters)” value is recorded as “low”; the “specific binding, gray matter homogenates of AD” value is reported as “detected predominantly in the gray matter homogenates of AD”; the “specific binding, white matter homogenates of AD brain” value was “very low or nonexistent”.
